From patent US20230338337A1, “BIOMARKERS FOR CANCER THERAPY USING MDM2 ANTAGONISTS” (OTSUKA PHARMACEUTICAL CO., LTD., priority 2019, published 2023) come the findings set out here.

As a reminder, the IC50 is the concentration that inhibits the measured activity by half.

One assay deals with SJSA-1. The assay can be described thus: Protocol B: CellTiter-Glo cell viability assay. The note with it: read-out: SJSA1 IC50 (μM) (Protocol B); Protocol B. (In ATP-based viability assays light output follows the ATP content of the culture.)
Assay [1] addresses MDM2-p53 interaction (in vitro translated MDM2) (Homo sapiens (Human), UniProt Q00987). The assay can be described thus: MDM2-p53 interaction 96-well plate binding assay (ELISA). The conditions noted are these: for MDM2 % inhibition at 0.0010: at 0.0010 μM. (In general: In an ELISA, binding on a coated surface is turned into a signal by an enzyme label.)
Assay [2] relates to SJSA-1 (p53 wild-type, MDM2 amplified osteosarcoma). The assay can be described thus: Protocol A: SRB growth inhibition assay. The note with it: read-out: SJSA-1 IC50 (μM) (Protocol A).

MDM2-p53 interaction (in vitro translated MDM2), sequence (Q00987 whole entry): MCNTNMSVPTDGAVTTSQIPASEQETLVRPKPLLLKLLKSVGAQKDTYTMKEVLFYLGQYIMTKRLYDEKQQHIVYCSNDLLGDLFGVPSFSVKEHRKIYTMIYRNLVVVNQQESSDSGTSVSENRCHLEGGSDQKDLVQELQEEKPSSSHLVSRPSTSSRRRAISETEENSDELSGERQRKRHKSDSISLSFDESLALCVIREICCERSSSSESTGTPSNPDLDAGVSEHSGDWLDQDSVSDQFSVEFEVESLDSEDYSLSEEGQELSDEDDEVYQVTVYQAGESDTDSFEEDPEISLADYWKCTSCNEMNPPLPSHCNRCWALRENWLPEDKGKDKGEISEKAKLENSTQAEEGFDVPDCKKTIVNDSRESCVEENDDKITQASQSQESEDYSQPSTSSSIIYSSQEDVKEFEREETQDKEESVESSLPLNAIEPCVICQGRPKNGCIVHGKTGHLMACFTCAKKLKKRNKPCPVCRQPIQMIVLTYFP

“(3R)-3-(4-chlorophenyl)-2-[(5-chloropyrimidin-2-yl)methyl]-4-fluoro-3-[(3-fluorooxetan-3-yl)methoxy]-6-[1-hydroxy-1-(1-methylpiperidin-4-yl)ethyl]-2,3-dihydro-1H-isoindol-1-one [Example 558]”: the figures for the IC50 (in the assay with SJSA-1; in assay [2]) were 0.082 µM and 0.22 µM, respectively. Moreover, the “MDM2 % inhibition at 0.0030” value in assay [1] (at 0.0030 μM) worked out at 53%@0.0030.
For “(3R)-3-(4-chlorophenyl)-2-[(4-chlorophenyl)methyl]-4-fluoro-3-{[1-(hydroxymethyl)cyclopropyl]methoxy}-6-(2-hydroxypropan-2-yl)-2,3-dihydro-1H-isoindol-1-one [Example 2]”, the figures for the IC50 (in the assay on SJSA-1; in assay [2]) were 3.4 µM and 1.7 µM, respectively.
Consider “1-({[(1R)-1-(4-chlorophenyl)-2-[(5-chloropyrimidin-2-yl)methyl]-7-fluoro-5-[1-hydroxy-1-(1-methyl-1H-imidazol-4-yl)propyl]-3-oxo-2,3-dihydro-1H-isoindol-1-yl]oxy}methyl)cyclopropane-1-carboxamide [Example 486]”, for which the IC50 amounted to 0.051 µM in the assay with SJSA-1 and 0.075 µM in assay [2]. Moreover, in assay [1], the “MDM2 % inhibition at 0.0010” value turned out to be 59%@0.0010.
The corresponding values for “(3R)-3-(4-chlorophenyl)-2-[(5-chloropyrimidin-2-yl)methyl]-4-fluoro-6-[(1S)-1-hydroxy-1-(1-methylpiperidin-4-yl)propyl]-3-{[1-(hydroxymethyl)cyclopropyl]methoxy}-2,3-dihydro-1H-isoindol-1-one [Example 556]” are 0.0064 µM, 0.056 µM and 91%@0.0010.
For the substance “(3R)-3-(4-chlorophenyl)-2-[(5-chloropyrimidin-2-yl)methyl]-4-fluoro-6-[1-hydroxy-1-(1-methyl-1H-imidazol-4-yl)propyl]-3-{[1-(hydroxymethyl)cyclopropyl]methoxy}-2,3-dihydro-1H-isoindol-1-one [Example 477]”, the IC50 with SJSA-1 stood at 0.0091 µM; in assay [2] it was 0.013 µM. Besides, the “MDM2 % inhibition at 0.0010” value in assay [1] is 86%@0.0010.
“2-{[(1R)-1-(4-chlorophenyl)-7-fluoro-1-({1-[hydroxydideuteromethyl]cyclopropyl}dideuteromethoxy)-5-(2-hydroxypropan-2-yl)-3-oxo-2,3-dihydro-1H-isoindol-2-yl]methyl}pyrimidine-5-carbonitrile [Example 513]”: the half-inhibitory concentration (IC50) in the assay with SJSA-1 stood at 0.38 µM; in assay [1] (read-out: MDM2 IC50), 3.1 nM; in assay [2] it was 0.26 µM.
“2-{[(1R)-1-(4-chlorophenyl)-7-fluoro-5-[1-(4-fluoro-1-methylpiperidin-4-yl)-1-hydroxypropyl]-1-methoxy-3-oxo-2,3-dihydro-1H-isoindol-2-yl]methyl}pyrimidine-5-carbonitrile [Example 575]”: the IC50 with SJSA-1 was 0.066 µM; in assay [2], 0.028 µM. The “MDM2 % inhibition at 0.0010” value in assay [1] came out at 38%@0.0010.
On the same counts, the results for “6-{[(1R)-1-(4-chlorophenyl)-7-fluoro-5-{1-hydroxy-1-[trans-4-hydroxycyclohexyl]propyl}-3-oxo-1-[cis-3-hydroxycyclobutoxy]-2,3-dihydro-1H-isoindol-2-yl]methyl}pyridine-3-carbonitrile [Example 518]” are 0.065 µM, 0.058 µM and 79%@0.0010.
The corresponding values for “2-{[(1R)-1-(4-chlorophenyl)-7-fluoro-5-{1-hydroxy-1-[trans-4-hydroxycyclohexyl]propyl}-1-(2-hydroxyethoxy)-3-oxo-2,3-dihydro-1H-isoindol-2-yl]methyl}pyrimidine-5-carbonitrile [Example 510]” are 0.073 µM, 0.084 µM and 79%@0.0010.
With “(3R)-3-(4-chlorophenyl)-2-[(5-chloropyridin-2-yl)methyl]-4-fluoro-6-[1-(4-fluoropiperidin-4-yl)-1-hydroxypropyl]-3-[(3S)-oxolan-3-yloxy]-2,3-dihydro-1H-isoindol-1-one [Example 548]”, the IC50 with SJSA-1 amounted to 0.17 µM; in assay [2], 0.14 µM. The “MDM2 % inhibition at 0.0010” value in assay [1] stood at 82%@0.0010.
As for “1-({[(1R)-1-(4-chlorophenyl)-2-[(5-chloropyridin-2-yl)methyl]-7-fluoro-5-{1-hydroxy-1-[1-(2-hydroxyethyl)piperidin-4-yl]ethyl}-3-oxo-2,3-dihydro-1H-isoindol-1-yl]oxy}methyl)cyclopropane-1-carbonitrile [Example 420]”, the IC50 in the assay on SJSA-1 worked out at 0.87 µM; in assay [2], 0.49 µM. Further, the “MDM2 % at concentration” value in assay [1] is reported as 68%@0.0010.
Take “(3R)-3-(4-chlorophenyl)-2-[(5-chloropyrimidin-2-yl)methyl]-4-fluoro-6-[1-[4-fluoro-1-(oxetan-3-yl)piperidin-4-yl]-1-hydroxypropyl]-3-methoxy-2,3-dihydro-1H-isoindol-1-one [Example 552]”: the IC50 turned out to be 0.02 µM in the assay with SJSA-1 and 0.028 µM in assay [2]. The “MDM2 % inhibition at 0.0010” value in assay [1] was 79%@0.0010.
“2-{[(1R)-1-(4-chlorophenyl)-7-fluoro-5-[1-(4-fluoro-1-methylpiperidin-4-yl)-1-hydroxypropyl]-3-oxo-1-[(3S)-oxolan-3-yloxy]-2,3-dihydro-1H-isoindol-2-yl]methyl}pyrimidine-5-carbonitrile [Example 561]”: the IC50 was found to be 0.065 µM with SJSA-1 and 0.021 µM in assay [2]. The “MDM2 % inhibition at 0.0010” value in assay [1] worked out at 47%@0.0010.
With “2-{[(1R)-1-(4-chlorophenyl)-1-[(1-cyanocyclopropyl)methoxy]-7-fluoro-5-[1-hydroxy-1-(1-methyl-1H-imidazol-4-yl)propyl]-3-oxo-2,3-dihydro-1H-isoindol-2-yl]methyl}pyrimidine-5-carbonitrile [Example 462]”, the results for the half-inhibitory concentration (IC50) (in the assay with SJSA-1; in assay [2]) were 0.047 µM and 0.073 µM, respectively. In addition, the “MDM2 % inhibition at 0.0010” value in assay [1] was found to be 80%@0.0010.
On the same counts, the results for “(3R)-3-(4-chlorophenyl)-2-[(5-chloropyrimidin-2-yl)methyl]-4-fluoro-6-[1-(4-fluoro-1-methylpiperidin-4-yl)-1-hydroxypropyl]-3-[(3S)-oxolan-3-yloxy]-2,3-dihydro-1H-isoindol-1-one [Example 571]” are 0.0085 µM, 0.023 µM and 77%@0.0010.
As for “(3R)-2-[(5-chloro-3-hydroxypyridin-2-yl)methyl]-3-(4-chlorophenyl)-4-fluoro-6-[1-hydroxy-1-(1-methyl-1H-imidazol-4-yl)propyl]-3-[cis-3-hydroxycyclobutoxy]-2,3-dihydro-1H-isoindol-1-one [Example 487]”, the “MDM2 % inhibition at 0.0010” value in assay [1] came out at 59%@0.0010. Further, the IC50 in assay [2] is 0.12 µM.
Regarding “(3R)-3-(4-chlorophenyl)-2-[(5-chloropyrimidin-2-yl)methyl]-4-fluoro-6-[1-hydroxy-1-(1-methylpiperidin-4-yl)ethyl]-3-{[1-(hydroxymethyl)cyclopropyl]methoxy}-2,3-dihydro-1H-isoindol-1-one [Example 554]”, the results for the IC50 (in the assay on SJSA-1; in assay [2]) were 0.07 µM and 0.21 µM, respectively. For the same substance, the “MDM2 % inhibition at 0.0010” value in assay [1] was 74%@0.0010.
